{
  "source": "ChEMBL document CHEMBL1926585",
  "about": "“Triterpenoids with rare carbon skeletons from Salvia hydrangea: antiprotozoal activity and absolute configurations” (J Nat Prod, 2011)",
  "key": {"[1]": {"assay": "Selectivity index, ratio of IC50 for rat L6 cells to IC50 for Trypanosoma brucei rhodesiense STIB900", "assay_type": "toxicity, cell-based", "details": "L6 cells versus Trypanosoma brucei rhodesiense STIB900, read-out: Ratio IC50"}, "[2]": {"test_system": "Trypanosoma brucei rhodesiense", "assay": "Antitrypanosomal activity against Trypanosoma brucei rhodesiense STIB900", "assay_type": "functional, organism-based"}, "L6": {"test_system": "L6", "assay": "Cytotoxicity against rat L6 cells", "assay_type": "cell-based"}, "Plasmodium falciparum": {"test_system": "Plasmodium falciparum", "assay": "Antiplasmodial activity against Plasmodium falciparum K1", "assay_type": "functional, organism-based"}, "[3]": {"assay": "Selectivity index, ratio of IC50 for rat L6 cells to IC50 for Plasmodium falciparum K1", "assay_type": "toxicity, cell-based", "details": "L6 cells versus Plasmodium falciparum K1, read-out: Ratio IC50"}},
  "data": [
    {"smiles": "CC1=CC(=O)[C@@]23CC[C@@H]4C(C)(C)CCC[C@@]45C[C@]24[C@@H]1C[C@H]1C(C)(C)OC(=C(C(C)C)C3=O)[C@]14O5", "note": "[PEROVSKONE B]", "values": [
      {"measurement": "selectivity ratio", "setting": "[1]", "value": 0.78},
      {"measurement": "IC50", "setting": "[2]", "value": 15.9, "unit": "µM"},
      {"measurement": "IC50", "setting": "L6", "value": 5.77, "unit": "µM"},
      {"measurement": "IC50", "setting": "Plasmodium falciparum", "value": 0.18, "unit": "µM"},
      {"measurement": "selectivity ratio", "setting": "[3]", "value": 69.6}
    ]},
    {"smiles": "C=CC1=C[C@@H]2[C@@H]3[C@]4(C(C)C)C(=O)[C@]5(CC[C@H]6C(C)(C)CCC[C@]67C[C@]25[C@@](OC[C@@]3(C)O)(O7)C4=O)C1", "note": "[SALVADIONE C]", "values": [
      {"measurement": "selectivity ratio", "setting": "[1]", "value": 43.2},
      {"measurement": "IC50", "setting": "[2]", "value": 4.33, "unit": "µM"},
      {"measurement": "IC50", "setting": "L6", "value": "> 90", "unit": "µM"},
      {"measurement": "IC50", "setting": "Plasmodium falciparum", "value": 1.43, "unit": "µM"},
      {"measurement": "selectivity ratio", "setting": "[3]", "value": 86.6}
    ]}
  ]
}
